Assay results as given in patent US9487500B2, “Compounds and compositions thereof” (Inhibikase Therapeutics, Inc., priority 2012, dated 2016).

Test system: K562 cells
Experiment: MTS cell viability assay (K562 cell line)
Format: cell-based
Details: Homo sapiens, 48 hr
Description: K562 cells were the first human immortalised myelogenous leukemia line to be established. K562 cells are of the erythroleukemia type, and the line is derived from a CML patient. The cells are non-adherent and rounded, are positive for the bcr:abl fusion gene.
K562 cell line is maintained in RPMI1640 with 10% fetal Bovine Serum. 2500 cells/well of K562 cells were plated in 96 well tissue culture plate. Cells were incubated for 48 hours with serially diluted compound (final concentration from 20 μM-0.002 μM) for 48 hr. MTS (3-(4,5-dimethylthiazol-2-yl)-5-(3-carboxymethoxyphenyl)-2-(4-sulfophenyl)-2H-tetrazolium), obtained from Promega was added to the wells and plates were incubated at […] in 5% CO2 for 4 hrs. The MTS compound is bio-reduced by cells into a colored formazan product that is soluble in tissue culture medium. The quantity of formazan product as measured by the amount of 490 nm absorbance is directly proportional to the number of living cells in culture. The absorbance was read at 490 nm (Spectramax microplate reader). The Percentage inhibition was calculated and plotted against the concentration of inhibitor and data was fit to Non Linear Regression curve fit (sigmoidal dose response curve with variable slope-four parameters) using Graph pad prism 5.

| SMILES | inhibition at 0.2 µM [%] | inhibition at 2 µM [%] | inhibition at 20 µM [%] |
| --- | --- | --- | --- |
| Cc1ccc(NC(=O)c2ccc(CN3CC[N+](C)(COC(=O)N[C@H](C)c4ccccc4)CC3)cc2)cc1Nc1nccc(-c2cccnc2)n1 [Compound 1011, (R)-1-methyl-4-(4-((4-methyl-3-((4-(pyridin-3-yl)pyrimidin-2-yl)amino)phenyl)carbamoyl)benzyl)-1-((((1-phenylethyl)carbamoyl)oxy)methyl)piperazin-1-ium iodide] | 45 | 63 | 70 |
| CCC(C)(C)OC(=O)OC[N+]1(C)CCN(Cc2ccc(C(=O)Nc3ccc(C)c(Nc4nccc(-c5cccnc5)n4)c3)cc2)CC1 [Compound 1028, 1-methyl-4-(4-(4-methyl-3-(4-(pyridin-3-yl)pyrimidin-2-ylamino)phenylcarbamoyl)benzyl)-1-((tert-pentyloxycarbonyloxy)methyl)piperazin-1-ium iodide] | 40 | 63 | 76 |
| Cc1ccc(NC(=O)c2ccc(CN3CCN(C)CC3)cc2)cc1Nc1nccc(-c2cccnc2)n1 [imatinib, 4-[(4-methylpiperazin-1-yl)methyl]-N-(4-methyl-3-{[4-(pyridin-3-yl)pyrimidin-2-yl]amino}phenyl)benzamide, reference compound] | 48 | 64 | 67 |
